# According to a melting point compilation (Tetko et al.; mined from patent text by program, amines drawn as free bases though some values may be those of a salt):
row,Structure (SMILES),melting point [°C]
1,N=c1n(Cc2ccc(Cl)cc2)c2ccc(Cl)cc2n1Cc1ccc(Cl)cc1,175 to 177
2,N#Cc1ccc(NCCc2nc3cc(Cl)ccc3c3nn(-c4ccccc4)cc23)nc1,207 to 208
3,CC12CCC3C(CCC4CC=CCC43C)C1CCC2C#N (stereo not drawn),110 to 112
4,CN1CCN(c2ccc(-c3[nH]nc4c3C(=O)c3c(NC(=O)NNC(=O)c5cccnc5)cccc3-4)cc2)CC1,238
5,CN1CCCCC1CCc1ccccc1NS(C)(=O)=O (stereo not drawn),91.5 to 93.5
6,COc1cc(-c2nc3ncccc3o2)cc(C(C)(C)C)c1,119 to 121
7,CCOC(=O)C(=CNc1ccc2nccnc2c1)C(=O)OCC,112 to 114
8,O=C1CCc2c(Cl)sc(-c3ccncc3)c21,163 to 165
9,COc1ccc(-c2cc3nc(N(C)C)c4ccccc4c3nn2)cc1,160 to 162
10,COc1ccc(C(CCC(C)=O)C(=O)c2ccc(OCc3ccccc3)cc2)cc1 (stereo not drawn),93 to 94
11,CC(C)(C)c1ccc2nc3c(c(O)c2c1)CCCC3,320 to 322
12,Cc1ccc(-c2[nH]c(-c3ccccc3)nc2C(=O)Nc2nc3ccccc3s2)cc1,269 to 270
13,COc1ccccc1N1CCN(CCNc2ccccn2)CC1,89 to 94
14,CCNC(=O)Nc1ccc(CC(CO)NCC(O)COc2ccccc2)cc1 (stereo not drawn),129 to 130
15,CC(C)(C)OC(=O)N1CCn2c(C(=O)N[C@@H](Cc3ccccc3)[C@H](O)CNC3(c4cccc(C(F)(F)F)c4)CC3)cc(C(=O)O)c2C1,134
16,CCOC(=O)C(=CN(C)C)C(=O)c1cc(F)c(N2CCC(NC(C)=O)C2)nc1Nc1ccc(F)cc1F (stereo not drawn),184 to 186
17,COc1ccc(C(=O)CCC2CCN(C(C)=O)CC2)cc1NC(=O)C(F)(F)F,77 to 79
18,CCc1cn(C2CC(I)C(CO)O2)c(=O)[nH]c1=O (stereo not drawn),162 to 164
19,COc1cc2c(c(OC)c1OC)OCC2=O,81 to 83

row,Structure (SMILES),melting point [°C]
1,O=C(CN1CC(c2ccc(Cl)cc2)CC1=O)Oc1c(Cl)c(Cl)c(Cl)c(Cl)c1Cl (stereo not drawn),135 to 136
2,Cc1c(C)c(N2CCN(c3ccc(C#N)cc3)CC2)c(C)c2c1OC(C)(C)C2,255 to 257
3,Nc1c(I)c(-c2ccccc2)nn1-c1c(Cl)cc(C(F)(F)F)cc1Cl,162 to 164
4,CS(=O)(=O)c1ccc(Oc2cc(OCc3ccccc3)c3[nH]c(C4=NCC(CCO)S4)cc3c2)cc1 (stereo not drawn),97 to 98
5,CN1C(=O)CCC1CN1C(=O)C2(COc3cc4c(cc32)CCO4)c2ccccc21 (stereo not drawn),72 to 76
6,CC(C)(O)C(CS(=O)(=O)c1ccccc1)C(F)(F)F (stereo not drawn),59 to 60
7,COc1cc2c(c3c1OC(C)(C)C3)C(c1ccc(-c3ccc(NC(C)=O)cc3)cc1)=NC(C)(C)C2,128 to 132
8,CC(=O)Nc1ccc(S(=O)(=O)NCCCN2CCOCC2)cc1,97 to 98
9,Cc1ccccc1[C@H]1CC[C@@H](c2ccccc2)N1C(=O)CNC(=O)Nc1cccc(CC(=O)O)c1 (racemic),133
10,O=C(O)C(=O)CC(=O)c1cccn1Cc1cccc2ccccc12,172 to 174
11,CCOC(=O)C(=CNc1ccc(CC)nc1)C(=O)OCC,55 to 57
12,CCOC(=O)c1cnc(-c2cccs2)s1,61 to 62
13,CC(O)c1ccc(CCNS(=O)(=O)c2ccccc2)cc1 (stereo not drawn),98 to 100
14,Cn1ccc2cc(N3Cc4ccc(Br)cc4C3=O)ccc21,235 to 237
15,Cc1nccn1-c1cccc(O)c1,178 to 181
16,CCCc1nc2ccccc2n1CCC1CCN(c2ccccc2-c2nnn[nH]2)CC1,231 to 233
17,CC(C)=CCN1CCN(CCC(=O)N2c3ccccc3C(=O)Nc3cccnc32)CC1,199 to 201
18,Cc1nc2c(C)cccn2c(=O)c1CCN1CC=C(c2c[nH]c3ccccc23)CC1,210 to 212
19,CC(C)(C)C1=C(c2cc3cc(O)ccc3o2)OCC1(C)C,129 to 130
